According to patent US20100172865A1, “METHODS OF ENHANCING HAIR GROWTH” (priority 2010, published 2010):
Like-named read-outs stand apart in the source and are kept apart here.

Legend:
[1] = test system: hair loss; conditions: clinical studies, taken by mouth; cited from earlier work
[2] = test system: cultured human hair follicles; conditions: cited from earlier work; for preventing hair follicles from entering into a catagen-like state, compared with insulin / rates of hair follicle growth compared with 10 micrograms/ml insulin: IGF-I 10 ng/ml, IGF-II 100 ng/ml; for effect on hair follicle growth: in the presence of 10 micrograms/ml insulin
[3] = test system: wound healing; experiment: Local insulin on ulcers, tooth extraction wounds and gums; assay type: in vivo, human
Text: We have used insulin for more than a decade to enhance the effectiveness of locally injected therapeutic agents specially cancers with chemotherapeutic agents with remarkable results. Our research data also supports that the insulin spray on indolent ulcers anywhere in the body, including the oral (gums) and nasal cavity.

[4] = test system: scalp hair growth; experiment: Local application of insulin to the scalp, alone or before other agents, hair growth; assay type: in vivo, human
Text: Wash scalp with mild shampoo. Avoid using hair conditioners which may coat the bald skin resulting in prevention of the effective absorption of insulin. This is followed by application of oxidant. In our invention, we can use any one of the above described antioxidants, but in this instance we are discussing povidine iodine. […] Allow it to dry, and follow it by application of insulin by a spray or swab repeatedly 2-3 times as it dries.
Apply the Wash dressing on the wound if need be.
Step 4: Apply selected hair growth therapeutic agent, which includes prostaglandin and its derivatives which are already in the market and FDA approved.
We recommend the use of tocotrienols after insulin application so that this therapeutic agent can easily permeate the hair follicle and promote the hair growth.
Apply selected hair growth therapeutic agent using PGF 2α, and analogues.

[5] = Text: If one develops hypoglycemic symptoms due to any number of reasons, drink a sugar drink, eat a candy, or fruit cocktail.
[6] = test system: MCF-7 human breast cancer cells; conditions: MCF-7 cells, insulin plus methotrexate; cited from earlier work
[7] = test system: hair loss due to chemotherapy; experiment: Insulin spray on the scalp during chemotherapy; assay type: in vivo, human; conditions: 3-5 units of insulin diluted in normal saline or ringers lactate, cancer patients
Protocol: It is this experience that leads us to this invention. […] We also experimented with application of cold pack to the scalp 15 minutes after insulin spray, which caused the constriction of BV and reduced the amount of chemotherapy agent reaching the scalp hair which causes havoc on the hair root cells. These three simple methods reduced the profound loss of scalp hair to chemotherapy toxic effects in cancer patients during chemotherapy treatment. Insulin applied directly to the scalp had preventive effect on hair loss due to chemotherapy.

[8] = cited from earlier work
[9] = in the absence of insulin, 0.01-100 ng/ml

CC(C)(C)NC(=O)[C@H]1CC[C@H]2[C@@H]3CC[C@H]4NC(=O)C=C[C@]4(C)[C@H]3CC[C@]12C [Finasteride]
share of men in whom hair loss stopped [1]: 83%

IGF-II: Insulin-like growth factor II
preventing hair follicles from entering into a catagen-like state, compared with insulin [2]: more potent than insulin | rates of hair follicle growth compared with 10 micrograms/ml insulin [2]: unable to stimulate hair follicle growth to the same extent as insulin | stimulation of hair follicle growth [2, 9]: stimulated hair follicle growth in a dose-dependent manner | concentration stimulating maximum rates of hair follicle growth ([2]; in the absence of insulin): 100 ng/mL | effect on hair follicle growth [2]: no significant effect

insulin: hormone secreted by beta cells in the islets of Langerhans in the pancreas
gum diseases (periodontitis) ([3]; insulin and antibiotics such as doxycycline locally on the gums): eliminated gum diseases | healing after teeth extraction ([3]; insulin soaked cotton swabs, 1-3-5 units in normal saline): rapid healing with reduced pain | wound healing ([3]; insulin spray on indolent ulcers): accelerated wound healing | hair follicle transplant healing and growth ([4]; insulin applied with hair follicle transplant, no second agent): rapid wound healing along with uptake and growth of hair follicle transplant | hair growth ([4]; insulin on its own): enhances the hair growth | hypoglycemia ([5]; after application of insulin to the scalp): none of our cases developed hypoglycemia | side effect after application ([5]; insulin preparations on the scalp): itching and redness | darkening of the skin ([5]; simple insulin applied to enhance hair growth): did not result in any appreciable darkening of the skin | concentration giving maximum rates of hair follicle growth ([2]; follicles maintained in medium containing insulin): 10 micrograms/ml | stimulation of hair follicle growth ([2]; over the range of 0.01 to 100 micrograms/ml): stimulated hair follicle growth in a dose-dependent manner | increase of the cytotoxic effect of methotrexate [6]: up to 10,000 fold | hair loss during chemotherapy [7]: reduced the hair loss dramatically

COc1cc(/C=C/C(=O)CC(=O)/C=C/c2ccc(O)c(OC)c2)ccc1O [curcumin]
use as antioxidant for hair growth after application of insulin ([4]; applied after insulin): used effectively

Regular (R) humulin or novolin: Short-acting insulin
Duration of action ([8]; in vivo): 5 to 8 h | Onset of action ([8]; in vivo): 30 to 60 min | Peak effect ([8]; short-acting insulin): 2 to 5 h

IGF-I: Insulin-like growth factor I
preventing hair follicles from entering into a catagen-like state, compared with insulin [2]: more potent than insulin | rates of hair follicle growth compared with 10 micrograms/ml insulin [2]: identical | stimulation of hair follicle growth [2, 9]: stimulated hair follicle growth in a dose-dependent manner | concentration stimulating maximum rates of hair follicle growth ([2]; in the absence of insulin): 10 ng/mL | effect on hair follicle growth [2]: no significant effect

growth hormone: growth hormone (somatotrophin)
influence on hair follicle and hair growth ([2]; growth hormone alone): no direct influence
